For four molecules, refractive index results are on record in the NIST ThermoML archive (doi:10.1021/je200799u).

A short description of the data set: refractive index (Na D-line) (dimensionless). The conditions noted are these: 298.15 K; 101.33 kPa; Liquid; Standard Abbe refractometry.

Numbers after ± are expanded uncertainties.

In the case of `CCCCCCCCCCCC` [dodecane], the refractive index stood at 1.4196 ± 0.0007.
The result for `CCCCCC(=O)[O-].C[NH2+]CCO` [N-methyl-2-hydroxyethylammonium hexanoate] reads 1.4563 ± 0.0012; that for `CCCC(=O)[O-].C[NH2+]CCO` [N-methyl-2-hydroxyethylammonium butanoate], 1.4555 ± 0.0012; that for `CC(=O)[O-].C[NH2+]CCO` [N-methyl-2-hydroxyethylammonium acetate], 1.4584 ± 0.0012.

The term refractive index denotes a measure of how strongly the sample bends light.
